Experimental data from patent US20180015051A1, “MODULATORS OF ALPHA-DICARBONYL DETOXIFICATION AND THEIR USE FOR THE TREATMENT OF DIABETIC PATHOLOGIES” (Buck Institute for Research on Aging, priority 2016, published 2018).

Tests used:
C. elegans = experiment: Lifespan assay (survival curves); type: in vivo, Caenorhabditis elegans; conditions: for Lifespan / early mortality (survival curves): glod-4 mutant animals, PA, LA, or UMP (20 pM) vs EtOH control
Experimental: Life span assays were performed in Thermo Scientific Precision incubators at 20° C. After alkaline hypochlorite treatment, synchronized L1 animals were either placed onto NGM plates seeded with 5× concentrated E. coli OP50-1 (cultured on Lysogeny Broth/LB overnight) or on RNAi plates supplemented with 20×HT1115 RNAi bacteria. Post-L4 stage of development, all lifespan assays were performed using FUdR (5-fluoro-2 deoxyuridine) plates to inhibit development and growth of progeny. Every two days, animals were transferred on to new 60 mm NGM or RNAi plates freshly seeded with OP50-1 or HT1115 bacteria (with or without drug), respectively. 90-120 animals were considered for each lifespan experiment. Animal viability was assessed visually or with gentle prodding on the head. Animals were censored in the event of internal hatching of the larvae, body rupture, or crawling of larvae from the plates.

TRPA-1 = biological target: T1, TRPA-1 (Caenorhabditis elegans, UniProt Q18297); experiment: Ca2+ flux-based channel study in C. elegans (intestinal GCaMP1.3), wild-type TRPA-1; type: in vivo; conditions: for Ca2+ flux (percentage change in peak GCaMP1.3 fluorescence intensity): wild-type TRPA-1, PA or LA (20 pM)
T1 construct: TQ3056: XuIs180[plfe2b::GCaMP1.3+plfe-2b::dsred];N2; endogenous in cells; host or cells: whole C. elegans animals, N2 background with intestinal GCaMP1.3 (strain TQ3056)
T1 sequence (Q18297 1-1211): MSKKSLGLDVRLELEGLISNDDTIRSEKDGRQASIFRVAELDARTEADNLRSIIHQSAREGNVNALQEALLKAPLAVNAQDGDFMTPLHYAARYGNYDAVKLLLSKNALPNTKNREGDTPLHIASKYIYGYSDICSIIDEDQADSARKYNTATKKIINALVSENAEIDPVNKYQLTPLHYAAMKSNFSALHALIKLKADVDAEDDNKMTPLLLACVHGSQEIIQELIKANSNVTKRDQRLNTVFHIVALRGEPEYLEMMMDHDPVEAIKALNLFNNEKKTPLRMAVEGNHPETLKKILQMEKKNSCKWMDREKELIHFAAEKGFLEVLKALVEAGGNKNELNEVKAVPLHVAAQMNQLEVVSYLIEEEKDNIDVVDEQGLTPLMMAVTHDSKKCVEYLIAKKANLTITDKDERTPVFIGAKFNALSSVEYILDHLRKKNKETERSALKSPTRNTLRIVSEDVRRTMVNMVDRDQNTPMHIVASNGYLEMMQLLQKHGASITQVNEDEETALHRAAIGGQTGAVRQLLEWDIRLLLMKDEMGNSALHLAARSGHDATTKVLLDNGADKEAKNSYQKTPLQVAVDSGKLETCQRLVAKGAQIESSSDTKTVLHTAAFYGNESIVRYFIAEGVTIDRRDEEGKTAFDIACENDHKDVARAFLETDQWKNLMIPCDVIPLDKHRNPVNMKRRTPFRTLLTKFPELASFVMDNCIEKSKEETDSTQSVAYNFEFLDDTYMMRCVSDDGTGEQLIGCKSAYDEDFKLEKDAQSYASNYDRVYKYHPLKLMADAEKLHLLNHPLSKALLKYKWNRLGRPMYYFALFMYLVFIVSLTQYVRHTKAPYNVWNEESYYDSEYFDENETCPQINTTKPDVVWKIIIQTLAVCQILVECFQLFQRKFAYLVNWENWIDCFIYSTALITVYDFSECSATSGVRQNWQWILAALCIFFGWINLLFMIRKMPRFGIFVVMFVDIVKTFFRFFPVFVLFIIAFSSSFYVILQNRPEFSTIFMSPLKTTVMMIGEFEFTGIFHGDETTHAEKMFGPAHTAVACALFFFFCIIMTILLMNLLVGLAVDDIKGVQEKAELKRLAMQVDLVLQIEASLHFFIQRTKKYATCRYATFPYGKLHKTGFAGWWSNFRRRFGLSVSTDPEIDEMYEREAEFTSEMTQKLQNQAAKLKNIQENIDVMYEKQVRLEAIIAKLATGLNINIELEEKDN
Experimental: (§1) Ca^2+ flux was measured using an upright Olympus compound microscope (BX51) under a 40× objective. Real time sequential G-CaMP1.3 fluorescent images were captured using Hamamatsu Ocra-ER digital CCD camera at a frame rate of 10 frames per second and for a span of 300 frames. Acquired images were analyzed for further intensity measurements using HC Image software v. 1.1.3.0 (Hamamatsu Corp., NJ). Percentage change in fluorescent peak intensity was estimated using the intensity values generated real time by the program.

[1] = biological target: T2, TRPA-1^E1018A (Ca^2+ impermeable) mutant channel (Caenorhabditis elegans, UniProt Q18297, E1018A); experiment: Ca2+ flux-based channel study in C. elegans (intestinal GCaMP1.3), TRPA-1^E1018A mutant channel; type: in vivo; conditions: Ca^+2-impermeable TRPA-1^E1018A channel; for Ca2+ flux (percentage change in peak GCaMP1.3 fluorescence intensity): PA or LA (20 pM)
T2 construct: expressed in transfected cells; host or cells: transgenic C. elegans (strain TQ2772), ges-1 promoter (intestine), trpa-1(ok999) background, with GCaMP1.3
Experimental: as §1

SKN-1/Nrf2 = experiment: SKN-1 activation assay (GFP reporters for SKN-1, gst-4, gcs-1; qPCR); type: in vivo, Caenorhabditis elegans; conditions: for Expression of gst-4 (GFP foci) under trpa-1 knockdown: glod-4;gst-4p::gfp animals, PA or LA (20 pM); for SKN-1 activation (GFP foci in gst-4p::gfp): gst-4p::gfp animals on EV or glod-4 RNAi, PA, LA, or UMP (20 pM)
Experimental: Adult animals were examined for SKN-1/Nrf2 activation using GFP reporters for both SKN-1 and SKN-1 target genes: gst-4 and gcs-1. For exogenous MGO and drug assays, age-synchronized GFP reporter strains were subject to control and treatment conditions for a period of 4-6 hours before microscopy. For RNAi-induced activation studies, GFP reporter strains were fed on HT1115 bacteria expressing empty vector pL4440 or RNAi gene from L1 stage. Synchronized day 1 adult animals were then subjected to microscopic examination. Activation of SKN-1 using SKN-1 fusion reporter was determined as described earlier (An et al. (2003) Genes & Dev. 17: 1882-1893; Onken and Driscoll (2010) PloS One, 5: e8758). Scoring for downstream SKN-1 targets carrying GFP reporter for gcs-1 promoter was performed based on a previous study (Wang et al. (2010) PLoS Genetics, doi. org/10.1371/journal.pgen.1001048) and categorized as follows: ‘high’ for strong GFP signal throughout the intestine, ‘medium’ for GFP signal in the anterior or posterior section of the intestine and ‘low’ for weak or no signal. For animals with gst-4 promoters carrying GFP reporters number of GST-4 positive foci was counted under different conditions as described previously (Fensgardet al. (2010) Aging, 2: 133-159). Quantification of acquired images was done using the Image J™ software (//imagej.nih.gov/ij/).
Total RNA was extracted from nearly 100 age-synchronized adult animals picked and collected in 20 pl of M9 buffer using TRIzol reagent (Life Technologies, CA). Subsequently, 1 pg total RNA was used as template for cDNA synthesis. cDNA was synthesized using the ISCRIPT™ cDNA synthesis kit (Bio-Rad, CA) following manufacturer's protocol. qRT-PCR was carried out using the SensiFAST SYBR No-ROX kit (Bioline, MA) in a LightCycler 480 Real-Time PCR system (Roche Diagnostics Corp., IN). Quantification was performed using the comparative AACt method and normalization for internal reference was done using actin gene act-1.

T2 sequence (Q18297 whole entry E1018A): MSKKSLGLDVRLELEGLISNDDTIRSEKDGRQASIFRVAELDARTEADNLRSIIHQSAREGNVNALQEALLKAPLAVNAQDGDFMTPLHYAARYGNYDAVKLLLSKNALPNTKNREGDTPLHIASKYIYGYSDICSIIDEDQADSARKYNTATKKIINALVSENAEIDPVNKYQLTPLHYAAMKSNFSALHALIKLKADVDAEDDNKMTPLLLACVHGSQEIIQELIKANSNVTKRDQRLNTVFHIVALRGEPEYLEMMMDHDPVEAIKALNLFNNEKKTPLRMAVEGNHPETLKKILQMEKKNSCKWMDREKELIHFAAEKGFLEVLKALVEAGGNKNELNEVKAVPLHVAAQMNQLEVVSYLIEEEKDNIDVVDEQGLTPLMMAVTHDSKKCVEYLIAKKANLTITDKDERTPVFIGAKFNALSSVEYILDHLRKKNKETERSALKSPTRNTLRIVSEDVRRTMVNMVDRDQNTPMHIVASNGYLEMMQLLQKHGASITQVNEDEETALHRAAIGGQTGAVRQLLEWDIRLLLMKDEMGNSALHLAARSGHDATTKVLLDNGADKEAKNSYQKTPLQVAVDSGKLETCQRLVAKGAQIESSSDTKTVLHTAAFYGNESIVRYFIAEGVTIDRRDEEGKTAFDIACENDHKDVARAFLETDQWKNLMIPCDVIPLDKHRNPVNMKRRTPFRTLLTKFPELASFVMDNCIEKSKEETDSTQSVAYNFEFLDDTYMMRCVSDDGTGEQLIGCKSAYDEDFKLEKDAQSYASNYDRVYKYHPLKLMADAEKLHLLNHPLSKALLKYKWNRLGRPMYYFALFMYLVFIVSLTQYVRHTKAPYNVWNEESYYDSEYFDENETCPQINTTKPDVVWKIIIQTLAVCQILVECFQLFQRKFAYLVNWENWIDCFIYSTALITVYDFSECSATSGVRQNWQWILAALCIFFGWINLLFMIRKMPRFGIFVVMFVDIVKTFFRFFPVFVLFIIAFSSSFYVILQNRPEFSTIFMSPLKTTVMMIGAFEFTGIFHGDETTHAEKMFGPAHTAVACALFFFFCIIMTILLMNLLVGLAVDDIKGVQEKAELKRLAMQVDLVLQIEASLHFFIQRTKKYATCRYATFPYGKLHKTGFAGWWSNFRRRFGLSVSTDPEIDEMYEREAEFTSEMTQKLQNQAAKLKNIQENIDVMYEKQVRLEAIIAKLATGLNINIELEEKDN

Row | SMILES | Lifespan / early mortality (survival curves) (C. elegans) | Ca2+ flux (percentage change in peak GCaMP1.3 fluorescence intensity) (TRPA-1) | Ca2+ flux (percentage change in peak GCaMP1.3 fluorescence intensity) [1] | Expression of gst-4 (GFP foci) under trpa-1 knockdown (SKN-1/Nrf2; trpa-1 RNAi) | SKN-1 activation (GFP foci in gst-4p::gfp) (SKN-1/Nrf2) | Lifespan (survival curves) (C. elegans; N2 animals, 7 mM MGO vs water) | Ca2+ response (G-CaMP1.3 sensor) (TRPA-1; functional (wild-type) TRPA-1 channel, 7 mM MGO vs water) | Ca2+ response (G-CaMP1.3 sensor) ([1]; 7 mM MGO) | SKN-1 nuclear localization (SKN-1::GFP) (SKN-1/Nrf2; 7 mM MGO vs water) | Expression of SKN-1 reporters gst-4 and gcs-1 on trpa-1 knockdown (SKN-1/Nrf2; MGO-treated wild-type animals, 7 mM MGO, trpa-1 RNAi) | SKN-1/Nrf2 activation (gst-4 and gcs-1, GFP reporter and RT-PCR) (SKN-1/Nrf2; exogenous MGO treatment, 7 mM vs water)
1 | O=C(O)CCCCC1CCSS1 (stereo not shown) [LA, a-lipoic acid] | performed similar to PA | robust Ca+^2 flux | significantly reduced | significantly reduced to wild-type levels | SKN-1 activation was observed | – | – | – | – | – | –
2 | CC(=O)C=O [MGO, methylglyoxal] | – | – | – | – | – | early mortality | robust Ca^2+ response | basal responses | undergo nuclear localization | significantly reduced | significant SKN-1/Nrf2 activation
3 | C[C@]1(C(=O)O)CCC[C@]2(C)c3cc(O)ccc3CC[C@@H]12 [PA, podocarpic acid] | able to prevent | robust Ca+^2 flux | significantly reduced | significantly reduced to wild-type levels | activates SKN-1 | – | – | – | – | – | –
